Experimental data from patent US20140377340A1, “HLA-DR BINDING PEPTIDES AND THEIR USES” (priority 2007, published 2014).

Experiments:
purified HLA DRB1*0901 = target: T1, purified HLA DRB1*0901 (Homo sapiens, UniProt P01903+P01911, A100R/A103E/D57H/D86V/F55Y/F60I/F76Y/I96F/K127E/L162R/M171V/P40D/Q125H/Q99R/R33Q/R42F/S133A/S66N/T210M/V115G/W38K/Y107V/Y59G/Y89S); assay: HLA-DR radioligand binding inhibition assay, DRB1*0901; settings: IC50 nM purified HLA DRB1 *0901, purified HLA DRB1*0901
T1 construct: purified from EBV transformed homozygous cell lines or single MHC allele transfected 721.221, C1R, or fibroblast lines; made in house
Description: (§1) Instead, wells of an opaque white 96-well Optiplate (Packard) are coated with 3 μg (100 μl@ 30 μg/ml) of HLA-specific antibody (Ab) that “capture” complexes of radiolabeled MHC and unlabeled peptide transferred from the molecular binding assay plate in 100 μl of 0.05% NP40/PBS. After a 3-hour incubation period, the supernatant is decanted and scintillation fluid (Microscint 20) added. Captured complexes are then measured on a microplate scintillation and luminescence counter (TopCount NXTTM; Packard).
(§2) HLA-DR purification. Fifteen distinct HLA-DR molecules were used in quantitative assays to measure the binding of peptides to solubilized HLA-DR molecules. […] Briefly, columns of inactivated Sepharose CL4B and Protein A Sepharose were used as pre-columns. HLA-DR molecules were captured by passage of lysates over LB3.1 monoclonal antibody (anti-HLA-DRA) columns. Antibody columns were washed with 10 mM Tris-HCL, pH8.0 with 1% (v/v) NP-40, followed by PBS containing 0.4% (w/v) n-octylglucoside.
(§3) Briefly, 1-10 nM of radiolabeled peptide was co-incubated for 2 days at either room temperature or 37° C. with 1 μM to 1 nM purified HLA-DR molecules in the presence of a cocktail of protease inhibitors. Assays were performed at various pH conditions, ranging from pH 4 to pH 7. […] After incubation, the percentage of HLA-DR-bound radioactivity is determined by capturing HLA-DR/peptide complexes on Optiplates (Packard Instruments, Meriden, Conn.) coated with the LB3.1 antibody and determining bound counts per minute using the TopCount microscintillation counter (Packard Instruments).

purified HLA DRB1*0701 = target: T2, purified HLA DRB1*0701 (Homo sapiens, UniProt P01903+P01911, A100R/A102G/A103Q/D57E/D86V/E43K/F76Y/K127E/L162R/M171V/P40G/Q125H/Q99D/R33Q/R42Y/R54Q/S133A/S66F/T210M/V115G/Y107V/Y59L/Y89S); assay: HLA-DR radioligand binding inhibition assay, DRB1*0701; settings: IC50 nM purified HLA DRB1 *0701, purified HLA DRB1*0701
T2 construct: purified from EBV transformed homozygous cell lines or single MHC allele transfected 721.221, C1R, or fibroblast lines; made in house
Method in brief: (§4)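 Bound radioactivity is read after 3-hour capture of complexes in 0.05% NP40/PBS on antibody-coated plates. Binding reactions pair 1-10 nM labeled peptide with 1 μM to 1 nM HLA-DR for two days.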

purified HLA DRB1*0404 = target: T3, purified HLA DRB1*0404 (Homo sapiens, UniProt P01903+P01911, A100R/A169T/F76Y/I96L/K127E/L162R/M171V/N62H/P40V/Q125Y/R42H/S133A/S149N/S66Y/V209L/W38E); assay: HLA-DR radioligand binding inhibition assay, DRB1*0404; settings: IC50 nM purified HLA DRB1 *0404, purified HLA DRB1*0404
T3 construct: purified from EBV transformed homozygous cell lines or single MHC allele transfected 721.221, C1R, or fibroblast lines; made in house
Method in brief: as §4

purified HLA DRB1*0802 = target: T4, purified HLA DRB1*0802 (Homo sapiens, UniProt P01903+P01911, A100R/A103L/A169T/F76Y/H45Y/I96F/K41T/L162R/M171V/P40S/Q125H/Q178H/Q39Y/Q99D/R218S/R42G/S66Y/V115G/W38E); assay: HLA-DR radioligand binding inhibition assay, DRB1*0802; settings: IC50 nM purified HLA DRB1 *0802, purified HLA DRB1*0802
T4 construct: purified from EBV transformed homozygous cell lines or single MHC allele transfected 721.221, C1R, or fibroblast lines; made in house
Description: as §1
as §2, with “n-octylglucoside. […] The pH was reduced to 8.0 and the eluates were concentrated by centrifugation in Centriprep 30 concentrators at 2000 rpm (Amicon, Beverly, Mass.).” for “n-octylglucoside.”
as §3, with “Instruments). […] Competitor peptides are tested in 2-4 complete, independent experiments, at concentrations ranging from […].” for “Instruments).”

purified HLA DRB1*0405 = target: T5, purified HLA DRB1*0405 (Homo sapiens, UniProt P01903+P01911, A100R/A169T/D86S/F76Y/I96L/K127E/L162R/M171V/N62H/P40V/Q125Y/R42H/S133A/S149N/S66Y/V115G/V209L/W38E); assay: HLA-DR radioligand binding inhibition assay, DRB1*0405; settings: IC50 nM purified HLA DRB1 *0405, purified HLA DRB1*0405
T5 construct: purified from EBV transformed homozygous cell lines or single MHC allele transfected 721.221, C1R, or fibroblast lines; made in house
Method in brief: as §4

purified HLA DRB1*1501 = target: T6, purified HLA DRB1*1501 (Homo sapiens, UniProt P01903+P01911); assay: HLA-DR radioligand binding inhibition assay, DRB1*1501
T6 construct: purified from EBV transformed homozygous cell lines or single MHC allele transfected 721.221, C1R, or fibroblast lines; made in house
Method in brief: as §4

purified HLA DRB4*0101 = target: T7, purified HLA DRB4*0101 (Homo sapiens, UniProt P01903+P13762, G164S); assay: HLA-DR radioligand binding inhibition assay, DRB4*0101; settings: IC50 nM purified HLA DRB4 *0101, purified HLA DRB4*0101
T7 construct: purified from EBV transformed homozygous cell lines or single MHC allele transfected 721.221, C1R, or fibroblast lines; made in house
Method in brief: as §4

purified HLA DRB3*0101 = target: T8, purified HLA DRB3*0101 (Homo sapiens, UniProt P01903+P79483); assay: HLA-DR radioligand binding inhibition assay, DRB3*0101; settings: IC50 nM purified HLA DRB3 *0101, purified HLA DRB3*0101
T8 construct: purified from EBV transformed homozygous cell lines or single MHC allele transfected 721.221, C1R, or fibroblast lines; made in house
Method in brief: (§5)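 Purified, solubilized HLA-DR molecules (1 μM to 1 nM) were co-incubated with 1-10 nM radiolabeled peptide for 2 days at room temperature or 37° C, pH 4 to 7, with protease inhibitors. Complexes were captured on LB3.1-coated plates and bound counts measured by scintillation; competitor peptides were tested at 30 μg/mL to […] in 2-4 independent experiments.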

purified HLA DRB1*1201 = target: T9, purified HLA DRB1*1201 (Homo sapiens, UniProt P01903+P01911, A100R/A169T/D57E/D86V/F55L/H45Y/K41T/L162R/M171V/P40S/Q125H/Q178H/Q39Y/Q99D/R42G/S66L/T262R/V114A/V67L/W38E/Y59H/Y61H/Y89S); assay: HLA-DR radioligand binding inhibition assay, DRB1*1201
T9 construct: purified from EBV transformed homozygous cell lines or single MHC allele transfected 721.221, C1R, or fibroblast lines; made in house
Method in brief: as §5

`CSCC[C@H](NC(=O)CNC(=O)[C@H](CC(C)C)NC(=O)CNC(=O)[C@H](Cc1ccc(O)cc1)NC(=O)[C@@H](N)CS)C(=O)N[C@@H](CCC(=O)O)C(=O)N[C@@H](Cc1c[nH]cn1)C(=O)N[C@@H](CC(C)C)C(=O)N[C@@H](CCCNC(=N)N)C(=O)N[C@@H](CCC(=O)O)C(=O)N[C@H](C(=O)N[C@@H](CCCNC(=N)N)C(=O)N[C@@H](C)C(=O)N[C@H](C(=O)O)C(C)C)C(C)C` [Peptide 9019.0044] was tested, and the IC50 (purified HLA DRB1*0901) was > 20000 nM, the IC50 (purified HLA DRB1*0701) was 271 nM and the IC50 (purified HLA DRB1*0404) was 493 nM. For the same compound, the IC50 (purified HLA DRB1*0802) was > 20000 nM, the IC50 (purified HLA DRB1*0405) was 5120 nM and the IC50 (purified HLA DRB1*1501) was 690 nM. The IC50 (purified HLA DRB4*0101) was 444 nM, the IC50 (purified HLA DRB3*0101) was > 20000 nM and the IC50 (purified HLA DRB1*1201) was 19000 nM.
